In patent EP0306300B1, “Pyrrolo(1,2-a)imidazole and imidazo(1,2-a)pyridine derivatives and their use as 5-lipoxygenase pathway inhibitors” (SMITHKLINE BEECHAM CORPORATION, priority 1987, dated 1989):
“Also recorded” adds a separate entry of the source. Read-outs that look alike come from different tables or passages of the source.

Tests used:
[1] = tested on: cynomolgus monkeys; experiment: CNS activity / oral toxicity in cynomolgus monkeys; settings: cynomolgus monkey, in vivo
Method: Additional monkeys tolerated repeated doses of 45 mg/kg or 30 mg/kg and one animal tolerated an escalating dose schedule of 30-90-120 mg/kg.
The two monkeys administered 400 mg/kg were repeatedly administered this dose for 7 consecutive days; each animal experienced emesis within 1 to 5 hours of dosing after the 1st, 3rd and 4th doses, whereas only the female experienced emesis after the 5th, 6th and 7th doses. A complete necropsy, serum clinical chemistry, hematology and histological examination was completed on both monkeys.

[2] = Log D determination by high pressure liquid chromatography; format: physicochemical; settings: hplc ods, mobile phase MeOH:H2O, pH 7.4, read-out: (Log D) (Lipophilicity)
Method: The procedure used to determine the log D's listed on Table VI was as follows. A 20 »l sample was injected into a Shandon Hypersil ODS, 5» (100 mm x 4.6 mm ID) column and was eluted using a mobile phase of […] MeOH:H₂O (The aqueous portion was .01 M in KH₂PO₄ and adjusted to pH 7.4 with KOH after mixing the MeOH), at a flow rate of 2 ml per minute. Eluting peaks were detected by UV absorbance at […]. All samples were made up at 0.1 mg/ml. (Retentions were identical at 0.01 mg/ml.)
The data was analyzed by determining the regression line corresponding to the log k′ vs. literature log P of the reference standards.
The reference standards and their literature log P's included NaNO₂, 0.0; acetanalide, 1.16; acetophenone, 1.66; anisole, 2.08; chlorobenzene, 2.84; benzophenone, 3.18; anthracene, 4.45; and pentachlorobenzene, 5.12.

[3] = Cytochrome P-450 inhibition (ethoxycoumarin-O-deethylase activity, phenobarbital-induced microsomes); settings: rat
[4] = target: T1, 5-Lipoxygenase (Rattus norvegicus, UniProt P12527); experiment: Assay of 5-lipoxygenase activity in RBL-1 high speed supernatant; format: biochemical; settings: read-out: 5-LO IC50
T1 construct: the supernatant was centrifuged at 100,000 x g for 60 min; host or cells: RBL-1 cells (soluble cell extract, high-speed supernatant)
T1 sequence (P12527 1-673): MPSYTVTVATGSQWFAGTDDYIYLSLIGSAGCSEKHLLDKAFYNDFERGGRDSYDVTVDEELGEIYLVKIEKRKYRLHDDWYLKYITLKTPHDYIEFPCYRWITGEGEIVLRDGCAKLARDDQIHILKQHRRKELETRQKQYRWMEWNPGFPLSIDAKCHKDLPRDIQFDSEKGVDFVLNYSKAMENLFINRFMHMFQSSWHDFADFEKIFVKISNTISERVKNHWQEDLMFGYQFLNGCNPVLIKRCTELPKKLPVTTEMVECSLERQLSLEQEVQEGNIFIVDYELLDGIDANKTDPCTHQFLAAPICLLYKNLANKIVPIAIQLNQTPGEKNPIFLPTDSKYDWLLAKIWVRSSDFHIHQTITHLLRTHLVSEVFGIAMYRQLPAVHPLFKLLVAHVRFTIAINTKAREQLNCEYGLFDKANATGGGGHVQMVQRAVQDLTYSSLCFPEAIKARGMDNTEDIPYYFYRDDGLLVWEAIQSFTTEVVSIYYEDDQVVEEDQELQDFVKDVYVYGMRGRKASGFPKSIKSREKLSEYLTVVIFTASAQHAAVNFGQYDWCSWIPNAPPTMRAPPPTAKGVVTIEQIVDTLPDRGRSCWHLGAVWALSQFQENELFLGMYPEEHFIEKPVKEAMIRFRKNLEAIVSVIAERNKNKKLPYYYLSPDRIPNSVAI
Method: For in vitro experiments, compounds were dissolved at appropriate concentrations in ethanol (final concentration 1.0%) and then diluted to final concentrations using the buffers indicated in the text.
The activities of these enzymes in extracts of RBL-1 cells were assayed using the method of Jakschik and Lee, Nature, 287, 51-52 (1980). RBL-1 cells were obtained from the American Type Culture Collection (#CRL 1378) and were grown at 37°C (5% CO₂ in air) in spinner culture in MEM supplemented with 10% heat inactivated fetal calf serum. Harvested cells were washed with 50 mM sodium phosphate buffer, pH 7.0, containing 1 mM EDTA and 0.1% gelatin, resuspended in fresh buffer (5 x 10⁷ cells/ml) and disrupted by nitrogen cavitation using the Parr bomb at 750 psi for 10 min. The broken cell extract was then centrifuged at 10,000 x g for 20 minutes (min) and the supernatant was centrifuged at 100,000 x g for 60 min. Aliquots (0.25 mls) of the supernatant were preincubated with or without drugs for 10 min, after which 10 ul CaCl₂ (2 mM) was added and the reaction was initiated with 2.5 »l of 2.5 mM arachidonic acid-1-¹⁴C (final concentration was 25 »M; specific activity 20,000 dpm/nmole). After incubation for 5 minutes at 37°C, the reaction was terminated by addition of 2 volumes (0.5 ml) ice cold acetone and the sample was allowed to deproteinize on ice for 10 minutes prior to centrifugation at 1,000 x g for 10 minutes. The deproteinized supernatant was adjusted to pH 3.5 with 2N formic acid and extracted with 2 volumes of ice cold ethyl acetate. The extracted samples were dried under argon, redissolved in ethyl acetate and applied to Whatman LK5D thin layer chromatography (TLC) plates which were developed using the A-9 solvent system [organic phase of ethyl acetate: […]:acetic acid: water (110:50:20:10)] described by Hamberg and Samuelsson, J. Biol. Chem., 241, 257-263 (1966). Arachidonic acid, 5-HETE, LTB₄ and PGD₂ were quantified with a Berthold LB 2832 autoscanner.
Under these conditions, only the 5-lipoxygenase pathway metabolites were detectable. The 5-HETE and di-HETEs were formed at a linear rate, and […] amounts of the arachidonic acid-1-¹⁴C substrate were utilized.

[5] = tested on: arachidonic acid-induced edema in mice; experiment: Arachidonic acid-induced mouse ear inflammation (ear swelling); format: in vivo, male Balb/c mice; settings: 1 h, 50 mg/kg s.c. or i.p., ear thickness one hour after 2 mg arachidonic acid
[6] = tested on: arachidonic acid-induced edema in mice; experiment: as above; format: in vivo, male Balb/c mice; settings: for inhibition at 50 mg/kg: Mus musculus, po, 1 h, 50 mg/kg p.o., ear thickness one hour after 2 mg arachidonic acid; for antiinflammatory activity: p.o.
Method: In the tests used to determine activity as 5-lipoxygenase pathway inhibitors, male Balb/c mice (20-28 g), were used. All mice were obtained from Charles River Breeding Laboratories, Kingston, N.Y. Within a single experiment, mice were age matched.
Reagents were employed as follows: Compounds of Formula (I) were each used as the free base. The compounds were homogenized in 0.5% tragacanth. Compounds were administered by […] at the indicated dose in a final volume of 10 ml/kg.
Arachidonic acid in acetone (2 mg/20 »l) was applied to the inner surface of the left ear. The thickness of both ears was then measured with a dial micrometer one hour after treatment, and the data were expressed as the change in thickness (10⁻³ cm) between treated and untreated ears.
Test compounds were given orally in acid/saline at the times indicated in the text prior to the topical application of arachidonic acid.
Dermatol., 82, 367-371 (1984)].

[7] = LTB4 production by RBL-1 high speed supernatant
[8] = total HETE and Di-HETE production by RBL-1 high speed supernatant

SMILES | inhibition at 50 mg/kg [5] [%] | inhibition at 50 mg/kg [6] [%] | other results
[O-][S+]1CCn2c1nc(-c1ccc(F)cc1)c2-c1ccncc1 (stereo not shown) [B, 5-(4-pyridyl)-6-(4-fluorophenyl)-2,3-dihydroimidazo [2,1-b]thiazole oxide, reference compound] |  |  | CNS toxicity / adverse CNS effects (comparative statement) [1]: reduced CNS toxicity; chromatographic logD [2]: 1.2; IC50 ([3]; liver microsomes): 5 µM
CS(=O)(=O)c1ccc(-c2nc3n(c2-c2ccncc2)CCC3)cc1 [Compound 3, 2-(4-Methylsulfonylphenyl)-3-(4-pyridyl)-6.7-dihydro-[5H]-pyrrolo[1,2-a]imidazole] | 3 |  | IC50 [4, 7]: > 100 µM; IC50 ([3]; microsomes): > 100 µM
COc1ccc(-c2nc3n(c2-c2ccccn2)CCC3)cc1 [Compound 4] | 29 |  | IC50 [4, 7]: > 100 µM
COc1ccc(-c2nc3n(c2-c2cccnc2)CCC3)cc1 [Compound 5] | 34 |  | IC50 ([3]; microsomes): > 100 µM
Oc1ccc(-c2nc3n(c2-c2ccncc2)CCC3)cc1 [Compound 7] |  | 27 | IC50 [4, 7]: 17 µM
CCOc1ccc(-c2nc3n(c2-c2ccncc2)CCC3)cc1 [Compound 8] |  | 62 | IC50 [4, 7]: 6 µM
CCCOc1ccc(-c2nc3n(c2-c2ccncc2)CCC3)cc1 [Compound 9] |  | 42 | IC50 [4, 7]: 3.5 µM; IC50 [4, 8]: 8 µM
CC(C)Oc1ccc(-c2nc3n(c2-c2ccncc2)CCC3)cc1 [Compound 10] |  | 43 | IC50 ([3]; microsomes): 2.5 µM
CC(=O)Sc1ccc(-c2nc3n(c2-c2ccncc2)CCC3)cc1 [Compound 11, 2-(4-Acetylthiophenyl)-3-(4-pyridyl)-6,7-dihydro-[5H]-pyrrolo[1,2-a]imidazole] |  | 46 | IC50 [4, 8]: 25 µM
CC(C)(C)C(=O)Sc1ccc(-c2nc3n(c2-c2ccncc2)CCC3)cc1 [Compound 12, 2-(4-Trimethylacetylthiophenyl)-3-(4-pyridyl)-6,7-dihydro-[5H]-pyrrolo[1,2-a]imidazole] |  | 45 | IC50 [4, 8]: 6 µM
CC(=O)OCSc1ccc(-c2nc3n(c2-c2ccncc2)CCC3)cc1 [Compound 13, 2-(4-Acetoxymethylthiophenyl)-3-(4-pyridyl)-6,7-dihydro-[5H]-pyrrolo[1,2-a]imidazole] |  | 51 | IC50 [4, 8]: 47 µM
CCSc1ccc(-c2nc3n(c2-c2ccncc2)CCC3)cc1 [Compound 14, 2-(4-Ethylthiophenyl)-3-(4-pyridyl)-6,7-dihydro-[5H]-pyrrolo[1,2-a]imidazole] |  | 56 | IC50 [4, 8]: 30 µM; IC50 ([3]; liver microsomes): 28.1 µM
CC[S+]([O-])c1ccc(-c2nc3n(c2-c2ccncc2)CCC3)cc1 (stereo not shown) [Compound 15, 2-(4-Ethylsulfinylphenyl)-3-(4-pyridyl)-6,7-dihydro-[5H]-pyrrolo[1,2-a]imidazole] |  | 41 | IC50 [4, 8]: > 100 µM; IC50 ([3]; liver microsomes): > 100 µM
CCOC(=O)CSc1ccc(-c2nc3n(c2-c2ccncc2)CCC3)cc1 [Compound 16, 2-(4-Carbethoxymethylthiophenyl)-3-(4-pyridyl)-6,7-dihydro-[5H]-pyrrolo[1,2-a]imidazole] | 15 |  | IC50 [4, 8]: 50 µM
c1cc(-c2cn3c(n2)CCC3)ccn1 [Compound 17] | 41 | 20 | 
CSc1ccc(-c2c(-c3ccncc3)nc3n2CCC3)cc1 [Compound 18] | 32 | 28 | 
C[S+]([O-])c1ccc(-c2c(-c3ccncc3)nc3n2CCC3)cc1 (stereo not shown) [Compound 19] | 56 | 52 | 
CSc1ccc(-c2nc3n(c2-c2ccnc(C)c2)CCC3)cc1 [Compound 20, 2-(4-Methylthiophenyl)-3-[4-(2-methyl)pyridyl]-6,7-dihydro-[5H]-pyrrolo[1,2,a]imidazole] | 59 | 59 | 
Cc1cc(-c2c(-c3ccc([S+](C)[O-])cc3)nc3n2CCC3)ccn1 (stereo not shown) [Compound 21, 2-(4-Methylsulfinylphenyl)-3-[4-(2-methyl)pyridyl]-6,7-dihydro-[5H]-pyrrolo[1,2-]imidazole] | 14 | 59 | 
COc1ccc(-c2nc3n(c2-c2ccnc(C)c2)CCC3)cc1 [Compound 22, 2-(4-methoxyphenyl)-3-[4-(2-methyl)pyridyl]-6,7-dihydro-[5H]-pyrrolo[1,2-a]imidazole] | 57 | 56 | 
COc1ccc(-c2nc3n(c2-c2ccnc(C)c2)CCC3)cc1 [Compound 23] |  |  | IC50 ([3]; liver microsomes): 56.6 µM
CC(C)Cc1ccc(C(C)C(=O)O)cc1 (stereo not shown) [ibuprofen, reference compound] |  |  | antiinflammatory activity ([6]; 250 mg/kg): do not exhibit detectable antiinflammatory activity
COc1ccc2c(c1)c(CC(=O)O)c(C)n2C(=O)c1ccc(Cl)cc1 [indomethacin, reference compound] |  |  | antiinflammatory activity ([6]; 10 mg/kg): did not reduce inflammation; also recorded: do not exhibit detectable antiinflammatory activity
COc1ccc2cc([C@H](C)C(=O)O)ccc2c1 [naproxen, reference compound] |  |  | antiinflammatory activity ([6]; 100 mg/kg): do not exhibit detectable antiinflammatory activity
